Test results from US6897317B2, “4-Phenyltetrahydrochinoline utilized as an inhibitor of the cholesterol ester transfer protein” (Bayer Aktiengesellschaft, priority 1997, dated 2005).

molecular target: T1, cholesterol ester transfer protein (CETP) (Homo sapiens, UniProt P11597); assay: CETP inhibition test (3H-cholesterol ester transfer from HDL to biotinylated LDL, SPA); format: biochemical; settings: CETP partially purified from human plasma; 37° C., 18 h; concentration at which transfer is reduced by half
T1 construct: CETP is obtained in partially purified form from human plasma by differential centrifugation and column chromatography; from tissue; host or cells: human plasma
T1 sequence (P11597 18-493): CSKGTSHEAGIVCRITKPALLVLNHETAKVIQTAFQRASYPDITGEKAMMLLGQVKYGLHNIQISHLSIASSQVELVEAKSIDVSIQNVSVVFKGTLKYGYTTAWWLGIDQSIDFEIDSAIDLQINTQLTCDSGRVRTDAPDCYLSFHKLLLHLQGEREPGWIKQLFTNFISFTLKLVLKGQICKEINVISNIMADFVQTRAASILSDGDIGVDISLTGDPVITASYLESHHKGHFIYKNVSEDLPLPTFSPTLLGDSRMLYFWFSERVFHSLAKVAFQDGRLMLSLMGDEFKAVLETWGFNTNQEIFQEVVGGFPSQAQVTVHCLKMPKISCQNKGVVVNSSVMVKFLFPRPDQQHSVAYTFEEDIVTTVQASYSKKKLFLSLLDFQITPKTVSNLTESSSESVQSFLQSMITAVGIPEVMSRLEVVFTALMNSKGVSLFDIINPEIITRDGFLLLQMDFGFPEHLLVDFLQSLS
Description: Preparation of CETP • CETP is obtained in partially purified form from human plasma by differential centrifugation and column chromatography and used for the test. For this purpose, human plasma is adjusted to a density of 1.21 g per ml using NaBr and centrifuged at 50,000 rpm at 4° C. for 18 h. The bottom fraction (d>1.21 g/ml) is applied to a Sephadex®Phenyl-Sepharose 4B (Pharmacia) column, washed with 0.15 m NaCl/0.001 M TrisHCl pH 7.4 and subsequently eluted using dist. water. The CETP-active fractions are pooled, dialysed against 50 mM Na-acetate pH 4.5 and applied to a CM-Sepharose® (Pharmacia) column. Elution is subsequently carried out using a linear gradient (0-1 M NaCl). The pooled CETP fractions are dialysed against 10 mM Tris HCl pH 7.4 and subsequently purified further by chromatography over a Mono Q® column (Pharmacia).
Preparation of Radioactively Labelled HDL • 50 ml of fresh human EDTA plasma are adjusted to a density of 1.12 using NaBr and centrifuged at 4° C. in a Ty 65 rotor at 50,000 rpm for 18 h. […] CETP test • To assess the CETP activity, the transfer of ^3H-cholesterol ester from human HD-lipoproteins to biotinylated LD-lipoproteins is measured. • The reaction is terminated by addition of Streptavidin-SPA® beads (Amersham) and the transferred radioactivity is directly measured in a liquid scintillation counter. • In the assay mixture, […] (˜50,000 cpm) with 10 ml of Biotin-LDL (Amersham) in 50 mM Hepes/0.15 m NaCl/0.1% bovine serum albumin/0.05% NaN3 pH 7.4 are incubated with 10 ml of CETP (1 mg/ml) and 3 ml of a solution of the substance to be tested (dissolved in 10% DMSO/1% BSA) at 37° C. for 18 h. […] of the SPA streptavidin bead solution (TRKQ 7005) are subsequently added, the mixture is incubated with shaking for another 1 h and subsequently measured in a scintillation counter. • The controls used are corresponding incubations with 10 ml of buffer, 10 ml of CETP at 4° C. and 10 ml of CETP at 37° C. • The activity which is transferred in the control experiments with CETP at 37° C. is taken to be 100% transfer. […]

SMILES | IC50
Cc1ccc(-c2c([C@@H](F)c3ccc(C(F)(F)F)cc3)c(C3CCCC3)nc3c2[C@@H](O)CC(C)(C)C3)cc1 [Example 53] | 0.01 µM
CC1(C)Cc2nc(C3CCCC3)c([C@@H](F)c3ccc(C(F)(F)F)cc3)c(-c3cccc(F)c3)c2[C@@H](O)C1 [Example 61] | 0.023 µM
CC1(C)Cc2nc(C3CCCC3)c(C(F)c3ccc(C(F)(F)F)cc3)c(-c3ccc(F)cc3)c2C(C)(O)C1 (single isomer, unassigned) [Example 1, 2-Cyclopentyl-4-(4-fluorophenyl)-3-[fluoro-(4-trifluoromethyl-phenyl)-methyl]-5-methyl-7,7-dimethyl-5,6,7,8-tetrahydro-quinolin-5-ol] | 0.006 µM

test system: not given; assay: not given; settings: not given

SMILES | melting point
Cc1ccc(-c2c(C(=O)c3ccc(C(F)(F)F)cc3)c(C3CCCC3)nc3c2[C@@H](O)CC(C)(C)C3)cc1 [Example 51] | 153 to 155 °C
CCOc1ccc(-c2c([C@@H](F)c3ccc(C(F)(F)F)cc3)c(C3CCCC3)nc3c2[C@@H](O)CC(C)(C)C3)cc1.Cl | 206 to 207 °C
CC1(C)Cc2nc(C3CCCC3)c(Cc3ccc(C(F)(F)F)cc3)c(-c3ccc(Cl)cc3)c2[C@@H](O)C1 [Example 56] | 136 to 137 °C
Cc1ccc(-c2c([C@@H](F)c3ccc(C(F)(F)F)cc3)c(C3CCCC3)nc3c2[C@@H](O)CC(C)(C)C3)cc1 [Example 53] | 156 to 158 °C
Cc1ccc(-c2c(Cc3ccc(C(F)(F)F)cc3)c(C3CCCC3)nc3c2[C@@H](O)CC(C)(C)C3)cc1 [Example 62] | 106 to 108 °C
CC1(C)Cc2nc(C3CCCC3)c(C(=O)c3ccc(C(F)(F)F)cc3)c(-c3cccc(F)c3)c2[C@@H](O)C1 [Example 49] | 167 to 168 °C
CC1(C)Cc2nc(C3CCCC3)c(C(=O)c3ccc(C(F)(F)F)cc3)c(-c3ccc(C(F)(F)F)cc3)c2[C@@H](O)C1 [Example 48] | 157 to 162 °C
CC1(C)Cc2nc(C3CCCC3)c(C(=O)c3ccc(C(F)(F)F)cc3)c(-c3ccc(Cl)cc3)c2[C@@H](O)C1 [Example 52] | 168 to 169 °C
CC1(C)Cc2nc(C3CCCC3)c(C(=O)c3ccc(C(F)(F)F)cc3)c(-c3ccc(F)c(F)c3)c2[C@@H](O)C1 [Example 46] | 166 to 168 °C
CC1(C)Cc2nc(C3CCCC3)c([C@@H](F)c3ccc(C(F)(F)F)cc3)c(-c3cccc(F)c3)c2[C@@H](O)C1 [Example 61] | 129 °C
CC1(C)Cc2nc(C3CCCC3)c([C@@H](F)c3ccc(C(F)(F)F)cc3)c(-c3ccc(C(F)(F)F)cc3)c2[C@@H](O)C1 [Example 54] | 175 to 176 °C
CC1(C)Cc2nc(C3CCCC3)c([C@@H](F)c3ccc(C(F)(F)F)cc3)c(-c3ccc(Cl)cc3)c2[C@@H](O)C1 [Example 55] | 138 to 139 °C
COc1ccc(-c2c(C(=O)c3ccc(C(F)(F)F)cc3)c(C3CCCC3)nc3c2[C@@H](O)CC(C)(C)C3)cc1 [Example 47] | 171 to 174 °C
